From patent US20250388574A1, “HETEROCYCLIC COMPOUNDS AS TRIGGERING RECEPTOR EXPRESSED ON MYELOID CELLS 2 AGONISTS AND METHODS OF USE” (AMGEN INC., priority 2020, published 2025) come the findings set out here.

Each structure is given as a SMILES string. Where two headings read alike, the source gives them in different places.

This assay addresses hTREM2 (Homo sapiens, UniProt Q9NZC2). As to the kind of experiment: Phospho-Syk AlphaScreen/AlphaLISA assay in TREM2 and DAP12 overexpressing HEK293 cells (Example A1). The class given is cell-based. More on the design: expressed in transfected cells. The method in brief: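 Agonism read as Syk phosphorylation: compounds in 1% DMSO applied 45 min at room temperature to TREM2/DAP12-HEK293 cells after 20 h culture. Lysis buffer with phosphatase inhibitors and anti-phospho-Syk plus biotinylated anti-Syk antibodies, then AlphaLISA beads (680 nm excitation); percent of control computed from antibody/isotype wells, curves fitted sigmoidally.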

The mark [1] stands for this setting: HEK293 cells, read-out: hTREM2 EC50.

Chain of hTREM2 (Q9NZC2 19-230): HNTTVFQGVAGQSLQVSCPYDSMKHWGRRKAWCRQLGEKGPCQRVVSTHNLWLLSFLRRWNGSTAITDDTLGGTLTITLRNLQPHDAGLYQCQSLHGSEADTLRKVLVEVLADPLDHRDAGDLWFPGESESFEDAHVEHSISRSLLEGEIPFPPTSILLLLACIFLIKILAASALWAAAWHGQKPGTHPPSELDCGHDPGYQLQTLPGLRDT
Chain of hTREM2 (O43914 22-113 partner): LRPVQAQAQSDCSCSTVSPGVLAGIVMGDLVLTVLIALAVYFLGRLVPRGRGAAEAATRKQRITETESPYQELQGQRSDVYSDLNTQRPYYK

As usually defined, the EC50 is the concentration at which the effect is half-maximal. On to `Cc1nc2cc(N3CCC(c4nccn4C)C3)nc(-c3ccc(Cl)cc3F)c2c(=O)n1C` (centres unmarked) [Example 122, 5-(4-chloro-2-fluorophenyl)-2,3-dimethyl-7-(3-(1-methyl-1H-imidazol-2-yl)-1-pyrrolidinyl)pyrido[4,3-d]pyrimidin-4(3H)-one], for which the Emax entry (HEK293 cells) was “+ (Emax>45 and ≤100)”. Also, the concentration for a half-maximal effect (EC50) under setting [1] was in the range of 3000 to 100000 nM.
Turning to `Cc1nc2cc(N3CCO[C@@H](c4cnn(C(C)C)c4)C3)nc(-c3ccc(Cl)cc3F)c2c(=O)n1C` [Example 123, 5-(4-chloro-2-fluorophenyl)-2,3-dimethyl-7-((2S)-2-(1-(2-propanyl)-1H-pyrazol-4-yl)-4-morpholinyl)pyrido[4,3-d]pyrimidin-4(3H)-one], the Emax entry (HEK293 cells) is given as “++++ (Emax>300)”. Also, under setting [1], the EC50 was < 50 nM.
On the same counts, the results for `Cc1nc2cc(N3CCO[C@@H](c4cnn(C5CCC5)c4)C3)nc(-c3ccc(Cl)cc3F)c2c(=O)n1C` [Example 124, 5-(4-chloro-2-fluorophenyl)-7-((2S)-2-(1-cyclobutyl-1H-pyrazol-4-yl)-4-morpholinyl)-2,3-dimethylpyrido[4,3-d]pyrimidin-4(3H)-one] are “++++ (Emax>300)” and < 50 nM.
The corresponding values for `Cc1nc2cc(N3CCO[C@@H](c4cnn(C5COC5)c4)C3)nc(-c3ccc(Cl)cc3F)c2c(=O)n1C` [Example 125, 5-(4-chloro-2-fluorophenyl)-2,3-dimethyl-7-((2S)-2-(1-(3-oxetanyl)-1H-pyrazol-4-yl)-4-morpholinyl)pyrido[4,3-d]pyrimidin-4(3H)-one] are “++++ (Emax>300)” and < 50 nM.
Turning to `Cc1nc2cc(N3CCO[C@@H](c4cnn(CC(F)(F)F)c4)C3)nc(-c3ccc(Cl)cc3F)c2c(=O)n1C` [Example 126, 5-(4-chloro-2-fluorophenyl)-2,3-dimethyl-7-((2S)-2-(1-(2,2,2-trifluoroethyl)-1H-pyrazol-4-yl)-4-morpholinyl)pyrido[4,3-d]pyrimidin-4(3H)-one], the Emax entry (HEK293 cells) was “+++ (Emax>200 and ≤300)”. Under setting [1], the EC50 is < 50 nM.
With `COCCn1cc([C@H]2CN(c3cc4nc(C)n(C)c(=O)c4c(-c4ccc(Cl)cc4F)n3)CCO2)cn1` [Example 127, 5-(4-chloro-2-fluorophenyl)-7-((2S)-2-(1-(2-methoxyethyl)-1H-pyrazol-4-yl)-4-morpholinyl)-2,3-dimethylpyrido[4,3-d]pyrimidin-4(3H)-one], the Emax entry (HEK293 cells) was “++++ (Emax>300)”. Further, the EC50 under setting [1] was 50 to 500 nM.
In the case of `Cc1nc2cc(N3CCO[C@@H](c4cnn(CCF)c4)C3)nc(-c3ccc(Cl)cc3F)c2c(=O)n1C` [Example 128, 5-(4-chloro-2-fluorophenyl)-7-((2S)-2-(1-(2-fluoroethyl)-1H-pyrazol-4-yl)-4-morpholinyl)-2,3-dimethylpyrido[4,3-d]pyrimidin-4(3H)-one], the Emax entry (HEK293 cells) is “+++ (Emax>200 and ≤300)”. In addition, the EC50 under setting [1] was < 50 nM.
For `Cc1nc2cc(N3CCO[C@@H](c4cnn(C(C)F)c4)C3)nc(-c3ccc(Cl)cc3F)c2c(=O)n1C` (stereo partly drawn) [Example 129, 5-(4-chloro-2-fluorophenyl)-7-((2S)-2-(1-(1-fluoroethyl)-1H-pyrazol-4-yl)-4-morpholinyl)-2,3-dimethylpyrido[4,3-d]pyrimidin-4(3H)-one], the Emax entry (HEK293 cells) was “+++ (Emax>200 and ≤300)”. Further, the 50% effective concentration (EC50) under setting [1] is < 50 nM.
In the case of `Cc1nc2cc(N3CCO[C@@H](c4cnn(C(F)CO)c4)C3)nc(-c3ccc(Cl)cc3F)c2c(=O)n1C` (stereo partly drawn) [Example 130, 5-(4-chloro-2-fluorophenyl)-7-((2S)-2-(1-(1-fluoro-2-hydroxyethyl)-1H-pyrazol-4-yl)-4-morpholinyl)-2,3-dimethylpyrido[4,3-d]pyrimidin-4(3H)-one], under setting [1], the EC50 lay in the range of 50 to 500 nM.
Consider `Cc1nc2cc(N3CCO[C@@H](c4cnn(C5CC(F)(F)C5)c4)C3)nc(-c3ccc(Cl)cc3F)c2c(=O)n1C` [Example 131, 5-(4-chloro-2-fluorophenyl)-7-((2S)-2-(1-(3,3-difluorocyclobutyl)-1H-pyrazol-4-yl)-4-morpholinyl)-2,3-dimethylpyrido[4,3-d]pyrimidin-4(3H)-one], for which the Emax result (HEK293 cells) is “+++ (Emax>200 and ≤300)”. The EC50 under setting [1] is < 50 nM.
`Cc1nc2cc(N3CCO[C@@H](c4cnn(CCN(C)C)c4)C3)nc(-c3ccc(Cl)cc3F)c2c(=O)n1C` [Example 132, 5-(4-chloro-2-fluorophenyl)-7-((2S)-2-(1-(2-(dimethylamino)ethyl)-1H-pyrazol-4-yl)-4-morpholinyl)-2,3-dimethylpyrido[4,3-d]pyrimidin-4(3H)-one]: the Emax entry (HEK293 cells) is listed as “++++ (Emax>300)”. Besides, the concentration for a half-maximal effect (EC50) under setting [1] was in the range of 50 to 500 nM.
Consider `Cc1nc2cc(N3CCO[C@@H](c4cnn(C(CF)CF)c4)C3)nc(-c3ccc(Cl)cc3F)c2c(=O)n1C` [Example 133, 5-(4-chloro-2-fluorophenyl)-7-((2S)-2-(1-(1,3-difluoro-2-propanyl)-1H-pyrazol-4-yl)-4-morpholinyl)-2,3-dimethylpyrido[4,3-d]pyrimidin-4(3H)-one], for which, where the note is “HEK293 cells”, the Emax entry is “+++ (Emax>200 and ≤300)”. The EC50 under setting [1] is < 50 nM.
For the molecule `Cc1nc2cc(N3CCO[C@@H](c4cnn(C5CN(C(=O)OC(C)(C)C)C5)c4)C3)nc(-c3ccc(Cl)cc3F)c2c(=O)n1C` [Example 134, 2-methyl-2-propanyl 3-(4-((2S)-4-(5-(4-chloro-2-fluorophenyl)-2,3-dimethyl-4-oxo-3,4-dihydropyrido[4,3-d]pyrimidin-7-yl)-2-morpholinyl)-1H-pyrazol-1-yl)-1-azetidinecarboxylate], the Emax result (HEK293 cells) is “++++ (Emax>300)”. Further, under setting [1], the EC50 is 50 to 500 nM.
The molecule `Cc1nc2cc(N3CCO[C@@H](c4cnn(C(F)CF)c4)C3)nc(-c3ccc(Cl)cc3F)c2c(=O)n1C` (stereo partly drawn) [Example 135, 5-(4-chloro-2-fluorophenyl)-7-((2S)-2-(1-(1,2-difluoroethyl)-1H-pyrazol-4-yl)-4-morpholinyl)-2,3-dimethylpyrido[4,3-d]pyrimidin-4(3H)-one] registered an EC50 (hTREM2 EC50, HEK293 cells) of 50 to 500 nM.
In the case of `Cc1nc2cc(N3CCO[C@@H](c4cnn(C5CC5)c4)C3)nc(-c3ccc(Cl)cc3F)c2c(=O)n1C` [Example 136, 5-(4-chloro-2-fluorophenyl)-7-((2S)-2-(1-cyclopropyl-1H-pyrazol-4-yl)-4-morpholinyl)-2,3-dimethylpyrido[4,3-d]pyrimidin-4(3H)-one], the Emax result (HEK293 cells) is given as “++++ (Emax>300)”. Moreover, the EC50 under setting [1] is < 50 nM.
On the same counts, the results for `C=Cn1cc([C@H]2CN(c3cc4nc(C)n(C)c(=O)c4c(-c4ccc(Cl)cc4F)n3)CCO2)cn1` [Example 137, 5-(4-chloro-2-fluorophenyl)-7-((2S)-2-(1-ethenyl-1H-pyrazol-4-yl)-4-morpholinyl)-2,3-dimethylpyrido[4,3-d]pyrimidin-4(3H)-one] are “++++ (Emax>300)” and < 50 nM.
As to `Cc1nc2cc(N3CCO[C@@H](c4cnn(C5CN(C)C5)c4)C3)nc(-c3ccc(Cl)cc3F)c2c(=O)n1C` [Example 138, 5-(4-chloro-2-fluorophenyl)-2,3-dimethyl-7-((2S)-2-(1-(1-methyl-3-azetidinyl)-1H-pyrazol-4-yl)-4-morpholinyl)pyrido[4,3-d]pyrimidin-4(3H)-one], the Emax result (HEK293 cells) was “+++ (Emax>200 and ≤300)”. Further, under setting [1], the 50% effective concentration (EC50) was 50 to 500 nM.
On to `Cc1nc2cc(N3CCO[C@@H](c4cnn(C(F)(F)F)c4)C3)nc(-c3ccc(Cl)cc3F)c2c(=O)n1C` [Example 141, 5-(4-chloro-2-fluorophenyl)-2,3-dimethyl-7-((2S)-2-(1-(trifluoromethyl)-1H-pyrazol-4-yl)-4-morpholinyl)pyrido[4,3-d]pyrimidin-4(3H)-one], for which, where the note is “HEK293 cells”, the Emax result is recorded as “++++ (Emax>300)”. For the same molecule, the concentration giving a half-maximal response (EC50) under setting [1] was 50 to 500 nM.
In the case of `Cn1cc([C@H]2CN(c3cc4nc(C5CC5)n(C)c(=O)c4c(-c4ccc(Cl)cc4F)n3)CCO2)cn1` [Example 142, 5-(4-chloro-2-fluorophenyl)-2-cyclopropyl-3-methyl-7-((2S)-2-(1-methyl-1H-pyrazol-4-yl)-4-morpholinyl)pyrido[4,3-d]pyrimidin-4(3H)-one], the Emax entry (HEK293 cells) was “++++ (Emax>300)”. For the same molecule, the concentration giving a half-maximal response (EC50) under setting [1] lay in the range of 50 to 500 nM.
On the same counts, the results for `Cn1cc([C@H]2CN(c3cc4nc(C(F)(F)F)n(C)c(=O)c4c(-c4ccc(Cl)cc4F)n3)CCO2)cn1` [Example 143, 5-(4-chloro-2-fluorophenyl)-3-methyl-7-((2S)-2-(1-methyl-1H-pyrazol-4-yl)-4-morpholinyl)-2-(trifluoromethyl)pyrido[4,3-d]pyrimidin-4(3H)-one] are “++++ (Emax>300)” and 50 to 500 nM.
The corresponding values for `CCn1c(C(F)(F)F)nc2cc(N3CCO[C@@H](c4cnn(C)c4)C3)nc(-c3ccc(Cl)cc3F)c2c1=O` [Example 144, 5-(4-chloro-2-fluorophenyl)-3-ethyl-7-((2S)-2-(1-methyl-1H-pyrazol-4-yl)-4-morpholinyl)-2-(trifluoromethyl)pyrido[4,3-d]pyrimidin-4(3H)-one] are “++++ (Emax>300)” and 50 to 500 nM.
Consider `Cc1nc2cc(N3CCO[C@@H](c4cnn(C)c4)C3)nc(-c3ccc(Cl)cc3F)c2c(=O)[nH]1` [Example 145, 5-(4-chloro-2-fluorophenyl)-2-methyl-7-((2S)-2-(1-methyl-1H-pyrazol-4-yl)-4-morpholinyl)pyrido[4,3-d]pyrimidin-4(3H)-one], for which the Emax result (HEK293 cells) is “++ (Emax>100 and ≤200)”. In addition, under setting [1], the concentration giving a half-maximal response (EC50) fell in the range of 500 to 3000 nM.
In the case of `CCn1c(C)nc2cc(N3CCO[C@@H](c4cnn(C)c4)C3)nc(-c3ccc(Cl)cc3F)c2c1=O` [Example 146, 5-(4-chloro-2-fluorophenyl)-3-ethyl-2-methyl-7-((2S)-2-(1-methyl-1H-pyrazol-4-yl)-4-morpholinyl)pyrido[4,3-d]pyrimidin-4(3H)-one], the Emax entry (HEK293 cells) is given as “++++ (Emax>300)”. For the same molecule, the EC50 under setting [1] is < 50 nM.
